In brackets after ≈: the same amount, converted by molar mass. Activity calls are given as the source filed them. No cut-off for these calls is given here.
Key:
[1] = Antimycobacterial activity against Mycobacterium abscessus subsp. abscessus bamboo strain assessed as inhibition of mycobacterial growth incubated for 3 days by broth microdilution method; assay type: functional; conditions: Mycobacteroides abscessus, 72 h, time 3 day
[2] = Lipophilicity, logP of compound; assay type: physicochemical; conditions: octanol/water
[3] = Inhibition of Mycobacterium abscessus DNA gyrase using pBR322 DNA as substrate […] by fluorescence based microplate reader assay; design: species or system Mycobacteroides abscessus
[4] = test system: Mycobacterium abscessus subsp. abscessus; assay: Upregulation of RecA promoter activity in P4C resistant Mycobacterium abscessus subsp. abscessus ATCC 19977 mutant D91N assessed as bacterial DNA damage by luminescence assay; assay type: functional; conditions: time 3.0 day
[5] = test system: Mycobacterium abscessus subsp. abscessus; assay: Upregulation of RecA promoter activity in Mycobacterium abscessus subsp. abscessus ATCC 19977 assessed as bacterial DNA damage by luminescence assay; assay type: functional
[6] = test system: Mycobacteroides abscessus; assay: Antimycobacterial activity against Mycobacterium abscessus ATCC 19977 assessed as inhibition of mycobacterial growth incubated for 3 days by broth microdilution method; assay type: functional; conditions: ATCC 19977, 72 h, time 3 day
[7] = Antimycobacterial activity against Mycobacterium abscessus subsp. bolletii CCUG 50184T assessed as inhibition of mycobacterial growth incubated for 3 days by broth microdilution method; assay type: functional; conditions: Mycobacteroides abscessus, 72 h, time 3 day
[8] = Antimycobacterial activity against Mycobacterium abscessus subsp. massiliense CCUG 48898T assessed as inhibition of mycobacterial growth incubated for 3 days by broth microdilution method; assay type: functional; conditions: Mycobacteroides abscessus, 72 h, time 3 day
[9] = test system: Mycobacteroides abscessus; assay: Antimycobacterial activity against Mycobacterium abscessus K21 assessed as inhibition of mycobacterial growth incubated for 3 days by broth microdilution method; assay type: functional; conditions: K21, 72 h, time 3 day
Mycobacterium avium = assay: Antimycobacterial activity against Mycobacterium avium 11 assessed as inhibition of mycobacterial growth incubated for 3 days by broth microdilution method; assay type: functional; conditions: Mycobacterium avium, 11, 72 h; time 3 day
Staphylococcus aureus = assay: Antibacterial activity against Staphylococcus aureus assessed as inhibition of bacterial growth incubated for 3 days by broth microdilution method; assay type: functional; conditions: 72 h, time 3 day
A-375 = assay: Cytotoxicity against human A375 cells assessed as reduction in cell viability upto 30 uM after 24 hrs by SRB assay; assay type: functional, cell-based; conditions: dose microM <=30, time 24.0 hrs
HT-29 = assay: Cytotoxicity against human HT-29 cells assessed as reduction in cell viability upto 30 uM after 24 hrs by SRB assay; assay type: functional, cell-based; conditions: dose microM <=30, time 24.0 hrs
MCF7 = assay: Cytotoxicity against human MCF7 cells assessed as reduction in cell viability upto 30 uM after 24 hrs by SRB assay; assay type: functional, cell-based; conditions: dose microM <=30, time 24.0 hrs
FaDu = assay: Cytotoxicity against human FaDu cells assessed as reduction in cell viability upto 30 uM after 24 hrs by SRB assay; assay type: functional, cell-based; conditions: dose microM <=30, time 24.0 hrs
NIH3T3 = assay: Cytotoxicity against mouse NIH3T3 cells assessed as reduction in cell viability upto 30 uM after 24 hrs by SRB assay; assay type: toxicity, cell-based; conditions: nih3t3, 24 h
HEK293 = assay: Cytotoxicity against human HEK293 cells assessed as reduction in cell viability upto 30 uM after 24 hrs by SRB assay; assay type: toxicity, cell-based; conditions: hek293, 24 h
hERG (KCNH2) = hERG (KCNH2) (Homo sapiens, UniProt Q12809); assay: Inhibition of human ERG at 10 uM; assay type: toxicity
[10] = Stability of compound in CD1 mouse at 25 mg/kg, po by HPLC-MS/MS analysis; assay type: ADME, organism-based; conditions: in vivo
[11] = Stability of compound in CD1 mouse plasma assessed as parent compound remaining by QE-HRMS analysis; assay type: ADME, cell-free
[12] = biological target: Voltage-gated inwardly rectifying potassium channel KCNH2 (Homo sapiens, UniProt Q12809); assay: Inhibition of human ERG; assay type: toxicity
Chain of Voltage-gated inwardly rectifying potassium channel KCNH2 (Q12809 whole entry): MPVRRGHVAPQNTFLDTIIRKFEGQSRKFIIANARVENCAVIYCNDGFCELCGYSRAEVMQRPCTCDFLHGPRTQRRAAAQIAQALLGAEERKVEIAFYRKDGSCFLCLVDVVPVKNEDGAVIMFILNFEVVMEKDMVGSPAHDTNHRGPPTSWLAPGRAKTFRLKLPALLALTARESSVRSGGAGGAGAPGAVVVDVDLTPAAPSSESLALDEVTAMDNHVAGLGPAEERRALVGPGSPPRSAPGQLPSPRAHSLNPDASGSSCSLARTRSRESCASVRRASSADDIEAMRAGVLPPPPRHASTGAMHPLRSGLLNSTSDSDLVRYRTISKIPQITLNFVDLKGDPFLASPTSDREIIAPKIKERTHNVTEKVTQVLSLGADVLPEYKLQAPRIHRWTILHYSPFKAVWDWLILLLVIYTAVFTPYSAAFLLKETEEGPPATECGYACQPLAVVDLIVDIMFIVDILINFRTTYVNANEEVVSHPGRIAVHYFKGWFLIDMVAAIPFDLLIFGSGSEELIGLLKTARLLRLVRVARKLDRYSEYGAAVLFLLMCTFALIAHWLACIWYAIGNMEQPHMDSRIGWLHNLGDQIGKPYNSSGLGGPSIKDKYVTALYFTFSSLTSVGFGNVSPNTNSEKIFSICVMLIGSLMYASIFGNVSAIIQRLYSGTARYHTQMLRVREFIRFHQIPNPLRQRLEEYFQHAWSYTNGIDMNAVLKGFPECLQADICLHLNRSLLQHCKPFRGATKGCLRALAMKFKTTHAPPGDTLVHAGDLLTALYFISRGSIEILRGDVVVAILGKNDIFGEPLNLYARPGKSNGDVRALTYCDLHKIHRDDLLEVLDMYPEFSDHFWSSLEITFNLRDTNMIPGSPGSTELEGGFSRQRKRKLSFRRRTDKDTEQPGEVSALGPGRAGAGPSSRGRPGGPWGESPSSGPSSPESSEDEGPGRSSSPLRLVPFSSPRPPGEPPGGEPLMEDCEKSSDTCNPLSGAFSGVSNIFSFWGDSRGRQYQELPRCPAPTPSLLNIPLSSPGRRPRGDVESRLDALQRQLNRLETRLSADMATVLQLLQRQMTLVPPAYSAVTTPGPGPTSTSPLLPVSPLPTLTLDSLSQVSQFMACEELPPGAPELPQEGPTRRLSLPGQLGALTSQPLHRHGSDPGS

Chain of hERG (KCNH2) (Q12809 whole entry): as above

COc1ccc2nccc(NC(=O)C3CCN(CCc4c(F)cccc4F)CC3)c2n1
MIC90 [1]: 100 µM (≈ 42.6 µg/mL)
logP [2]: 2.3

COc1ccc2nccc(NC(=O)CC3CCN(Cc4ccc(C(F)(F)F)cc4)CC3)c2n1
IC50 [3]: 40000 nM
MIC90 [1]: 100 µM (≈ 45.8 µg/mL)
logP [2]: 2.8

COc1ccc2nccc(NC(=O)C3CCN(CCc4cc(F)cc(F)c4)CC3)c2n1
MIC90 [1]: 50 µM (≈ 21.3 µg/mL)
logP [2]: 2.3

COc1ccc2nccc(NC(=O)C3CCN(CCc4ccc(F)cc4)CC3)c2n1
MIC90 [1]: 50 µM (≈ 20.4 µg/mL)
logP [2]: 2.1

O=c1ccc2ncc(=O)n3c2n1C[C@H]3CN1CCC(NCc2cc3c(cn2)OCCC3)CC1 [GEPOTIDACIN]
IC50 [3]: 2000 nM
MIC90 [1]: 10 µM (≈ 4.49 µg/mL)
logP [2]: 0.1
Activity [4]: inactive
Activity [5]: Active

COc1c(N2C[C@@H]3CCCN[C@@H]3C2)c(F)cc2c(=O)c(C(=O)O)cn(C3CC3)c12 [MOXIFLOXACIN]
MIC90 [1]: 2 µM (≈ 0.803 µg/mL)
MIC90 [6]: 2 µM (≈ 0.803 µg/mL)
MIC90 [7]: 4 µM (≈ 1.61 µg/mL)
MIC90 [8]: 4 µM (≈ 1.61 µg/mL)
MIC90 [9]: 4 µM (≈ 1.61 µg/mL)
MIC90 (Mycobacterium avium): 0.6 µM (≈ 0.241 µg/mL)
MIC90 (Staphylococcus aureus): 0.2 µM (≈ 0.0803 µg/mL)

COc1ccc2nccc(NC(=O)C3CCN(CCc4ccccc4F)CC3)c2n1
MIC90 [1]: 50 µM (≈ 20.4 µg/mL)
logP [2]: 2.1

COc1ccc2nccc(NC(=O)C3CCN(CCc4ccc(C(F)(F)F)c(F)c4)CC3)c2n1
MIC90 [1]: 0.6 µM (≈ 0.286 µg/mL)
logP [2]: 3.1
MIC90 [6]: 0.6 µM (≈ 0.286 µg/mL)
MIC90 [7]: 1 µM (≈ 0.476 µg/mL)
MIC90 [8]: 1.5 µM (≈ 0.715 µg/mL)
MIC90 [9]: 2 µM (≈ 0.953 µg/mL)
MIC90 (Mycobacterium avium): 0.8 µM (≈ 0.381 µg/mL)
MIC90 (Staphylococcus aureus): 0.5 µM (≈ 0.238 µg/mL)
Activity (A-375): inactive
Activity (HT-29): inactive
Activity (MCF7): inactive
Activity (FaDu): inactive
Activity (NIH3T3): Non-Toxic
Activity (HEK293): Non-Toxic

COc1ccc(CCN2CCC(C(=O)Nc3ccnc4ccc(OC)nc34)CC2)cc1
MIC90 [1]: 100 µM (≈ 42.1 µg/mL)
logP [2]: 1.9

COc1ccc2nccc(NC(=O)C3CCN(CCc4ccc(C(F)(F)F)cc4)CC3)c2c1
IC50 [3]: 6000 nM
MIC90 [1]: 100 µM (≈ 45.7 µg/mL)
logP [2]: 3

COc1ccc2cccc(NC(=O)C3CCN(CCc4ccc(C(F)(F)F)cc4)CC3)c2n1
IC50 [3]: 3000 nM
MIC90 [1]: 3.12 µM (≈ 1.43 µg/mL)
logP [2]: 3.6
Activity (A-375): inactive
Activity (HT-29): inactive
Activity (MCF7): inactive
Activity (FaDu): inactive
Activity (NIH3T3): Non-Toxic
Activity (HEK293): Non-Toxic

COc1ccc2nccc(NC(=O)C3CCN(CCc4ccc(F)cc4F)CC3)c2n1
MIC90 [1]: 50 µM (≈ 21.3 µg/mL)
logP [2]: 2.3

COc1ccc2nccc(NC(=O)C3CCN(CCc4ccc(C(F)(F)F)cc4)CC3)c2n1
IC50 [3]: 1500 nM
MIC90 [1]: 1.5 µM (≈ 0.688 µg/mL)
logP [2]: 2.9
MIC90 [6]: 1.5 µM (≈ 0.688 µg/mL)
MIC90 [7]: 2 µM (≈ 0.917 µg/mL)
MIC90 [8]: 2 µM (≈ 0.917 µg/mL)
MIC90 [9]: 3.5 µM (≈ 1.6 µg/mL)
MIC90 (Mycobacterium avium): 2.5 µM (≈ 1.15 µg/mL)
MIC90 (Staphylococcus aureus): 0.2 µM (≈ 0.0917 µg/mL)
Activity (A-375): inactive
Activity (HT-29): inactive
Activity (MCF7): inactive
Activity (FaDu): inactive
Activity (NIH3T3): Non-Toxic
Activity (HEK293): Non-Toxic
inhibition at 10 µM (hERG (KCNH2)): 93%
Stability [10]: Stable
Stability [11]: Stable

COc1ccc2nccc(NC(=O)C3CCN(CCc4ccc(OC(F)(F)F)cc4)CC3)c2n1
MIC90 [1]: 100 µM (≈ 47.4 µg/mL)
logP [2]: 4

COc1ccc2nccc(NC(=O)C3CCN(CCc4cccc(C(F)(F)F)c4)CC3)c2n1
MIC90 [1]: 12.5 µM (≈ 5.73 µg/mL)
logP [2]: 2.9
Activity (A-375): inactive
Activity (HT-29): inactive
Activity (MCF7): inactive
Activity (FaDu): inactive
Activity (NIH3T3): Non-Toxic
Activity (HEK293): Non-Toxic

COc1ccc2nccc(NC(=O)C3CCN(CCc4cccc(F)c4F)CC3)c2n1
MIC90 [1]: 100 µM (≈ 42.6 µg/mL)
logP [2]: 2.3

COc1ccc2nccc(NC(=O)C3CCN(CCc4ccc(Cl)cc4)CC3)c2n1
IC50 [3]: 3000 nM
MIC90 [1]: 12 µM (≈ 5.1 µg/mL)
logP [2]: 2.6
Activity (A-375): inactive
Activity (HT-29): inactive
Activity (MCF7): inactive
Activity (FaDu): inactive

O=C1COc2ccc(CNC3CCN(CCn4c(=O)ccc5ccc(Oc6ccccn6)nc54)CC3)nc2N1
IC50 [3]: 110 nM
MIC [1]: 0.06 µM (≈ 0.0317 µg/mL)
IC50 [12]: 155 µM

COc1ccc2nccc(NC(=O)C3CCN(CCc4ccc(F)c(F)c4)CC3)c2n1
MIC90 [1]: 25 µM (≈ 10.7 µg/mL)
logP [2]: 2.3

COc1ccc2nccc(NC(=O)C3(C)CCN(CCc4ccc(C(F)(F)F)cc4)CC3)c2n1
IC50 [3]: 6000 nM
MIC90 [1]: 3 µM (≈ 1.42 µg/mL)
logP [2]: 3.3
MIC90 [6]: 3 µM (≈ 1.42 µg/mL)
MIC90 [7]: 6.4 µM (≈ 3.02 µg/mL)
MIC90 [8]: 8 µM (≈ 3.78 µg/mL)
MIC90 [9]: 8 µM (≈ 3.78 µg/mL)
MIC90 (Mycobacterium avium): 6 µM (≈ 2.84 µg/mL)
MIC90 (Staphylococcus aureus): 1 µM (≈ 0.473 µg/mL)
Activity (A-375): inactive
Activity (HT-29): inactive
Activity (MCF7): inactive
Activity (FaDu): inactive
Activity (NIH3T3): Non-Toxic
Activity (HEK293): Non-Toxic
Stability [10]: Stable
Stability [11]: Stable

COc1ccc2nccc(NC(=O)C3CCN(CCc4ccc(Cl)cc4)CC3)c2c1
MIC90 [1]: 50 µM (≈ 21.2 µg/mL)
logP [2]: 2.8

COc1cnc2ccc(=O)n(CCN3CCC(NCc4ccc(Cl)c(Cl)c4)CC3)c2c1
MIC [1]: < 0.02 µM
IC50 [12]: 1.32 µM

COc1ccc2nccc(NC(=O)[C@H]3CC[C@H](NCc4ccc(C(F)(F)F)cc4)CC3)c2n1
IC50 [3]: 1500 nM
MIC90 [1]: 0.4 µM (≈ 0.183 µg/mL)
logP [2]: 3.3
MIC90 [6]: 0.4 µM (≈ 0.183 µg/mL)
MIC90 [7]: 1 µM (≈ 0.458 µg/mL)
MIC90 [8]: 1.2 µM (≈ 0.55 µg/mL)
MIC90 [9]: 2 µM (≈ 0.917 µg/mL)
MIC90 (Mycobacterium avium): 2 µM (≈ 0.917 µg/mL)
MIC90 (Staphylococcus aureus): 0.7 µM (≈ 0.321 µg/mL)
Activity (A-375): inactive
Activity (HT-29): inactive
Activity (MCF7): inactive
Activity (FaDu): inactive
Activity (NIH3T3): Non-Toxic
Activity (HEK293): Non-Toxic

COc1ccc2nccc(NS(=O)(=O)C3CCN(CCc4ccc(C(F)(F)F)cc4)CC3)c2n1
MIC90 [1]: 100 µM (≈ 49.5 µg/mL)
logP [2]: 2.4

O=C(Nc1cccc2ccc(Cl)nc12)C1CCN(CCc2ccc(C(F)(F)F)cc2)CC1
IC50 [3]: 3000 nM
MIC90 [1]: 50 µM (≈ 23.1 µg/mL)
logP [2]: 3.9

COc1ccc2nccc(NC(=O)C3CCN(CCc4cccc(F)c4)CC3)c2n1
MIC90 [1]: 25 µM (≈ 10.2 µg/mL)
logP [2]: 2.1
